The values that follow come from ChEMBL document CHEMBL5500322, “The significance of persisters in tuberculosis drug discovery: Exploring the potential of targeting the glyoxylate shunt pathway” (Eur J Med Chem, 2024).

≈ marks a conversion by molar mass, not a printed value.

What is called Ki is the dissociation constant of the complex between target and ligand, obtained from inhibition or displacement. Usually IC50 stands for the concentration needed to halve the response being measured. A word on the MIC: it is the lowest concentration found to suppress growth. By inhibition is commonly meant the relative decrease from the control value, in per cent. Low readings indicate a weak effect, high ones a strong effect.

Assay [1] can be described thus: Binding affinity to indigofera isocitrate lyase assessed as inhibition of constant. Also on record: species or system Vogesella indigofera.
Assay [2] is described as follows: Inhibition of Mycobacterium tuberculosis isocitrate lyase.
In another assay the test system is Escherichia coli. The assay can be described thus: Antibacterial activity against Escherichia coli assessed as reduction in bacterial growth. It counts as functional, organism-based.
Assay [3] deals with Mycobacterium tuberculosis. Kind of assay: Antimycobacterial activity against Mycobacterium tuberculosis H37Rv assessed as reduction in bacterial growth measured after 7 days by broth dilution method. It counts as functional. Particulars: 168 h, time 7 day. A general note: Dilution methods test growth across graded concentrations, often in twofold steps.
Assay [4] can be described thus: Binding affinity to Mycobacterium tuberculosis Malate synthase assessed as inhibition constant.
In assay [5] the test system is Mycobacterium tuberculosis. The assay can be described thus: Inhibition of Mycobacterium tuberculosis malate synthase at 1 uM relative to control.
Assay [6] has as its system Mycobacterium tuberculosis. Kind of assay: Inhibition of Mycobacterium tuberculosis isocitrate lyase at 0.05 microg/ml relative to control. The note with it: dose 0.05 µg/ml.
The nature of assay [7]: Inhibition of N-terminal His-tagged isocitrate lyase (unknown origin) expressed in Escherichia coli BL21 (DE3).
Assay [8] has as its system Mycobacterium tuberculosis. Kind of assay: Antibacterial activity against Mycobacterium tuberculosis H37Rv (ATCC 27294) assessed as bacterial growth inhibition incubated for 7 days by microdilution alamarBlue assay. Format: functional. Particulars: 168 h, time 7 day.
The test system of assay [9] is Mycobacterium tuberculosis. Kind of assay: Binding affinity to Mycobacterium tuberculosis isocitrate lyase assessed as inactivation constant.
Assay [10] relates to Mycobacterium tuberculosis. Kind of assay: Antimycobacterial activity against Mycobacterium tuberculosis assessed as reduction in bacterial growth. Format: functional.
Assay [11] can be described thus: Inhibition of N-terminal His-tagged Mycobacterium tuberculosis malate synthase expressed in Escherichia coli BL21 (DE3).
Assay [12] concerns Mycobacterium tuberculosis. Kind of assay: Antimycobacterial activity against Mycobacterium tuberculosis H37Rv assessed as inhibition of bacterial growth incubated for 24 hrs by alamar blue assay. Format: functional. For orientation: Resazurin is reduced to fluorescent resorufin, in cell work by metabolically active cells.

In the case of `O=C(O)CC[N+](=O)[O-]`, in assay [1], the Ki was 120 µM. The compound `CCCCCCCCCCCCC(=O)NNC(=O)c1c(O)c2ccccc2n(CC)c1=O` gave an IC50 in [2] of 134.4 µg/mL (≈ 303 µM). In the case of `O=C(O)C(=O)CBr` [BROMOPYRUVATE], in the assay with Escherichia coli, the half-inhibitory concentration (IC50) amounted to 3 µM. `COc1ccc2c(c[n+](C)c3c4cc5c(cc4ccc23)OCO5)c1OC` [CHELERYTHRINE]: the MIC in assay [3] was found to be 8 µg/mL. Turning to `O=CC(=O)O` [GLYOXYLATE], the Ki in assay [4] was found to be 900 µM. Turning to `C=C(CC(=O)O)C(=O)O` [ITACONATE], the Ki in assay [1] is 120 µM.

With `C=C(OP(=O)(O)O)C(=O)O` [PHOSPHOENOLPYRUVATE], the Ki in assay [4] is 200 µM.

`O=C(O)CC(O)C(=O)O` (centres undefined): the inhibition in [5] stood at 50%. As to `COc1ccc2cc(CCC(=O)CC(Nc3ccc(C(=O)O)cc3)c3ccc(Cl)cc3)ccc2c1` (centres undefined), the inhibition in assay [6] is 57.4%. Regarding `COC(=O)/C=C/C(=O)c1ccc(OC)cc1`, the half-inhibitory concentration (IC50) in assay [7] (read-out: IC50) was determined as 30.9 µM. In assay [8], the minimal inhibitory concentration (MIC) is 0.25 µg/mL (≈ 1.14 µM). Consider `O=C(O)C(=O)O` [OXALIC ACID], for which, in assay [4], the inhibition constant Ki was determined as 400 µM. As to `O=C(O)[C@@H](C[N+](=O)[O-])[C@@H](O)C(=O)O`, the Kinact in assay [9] is 1.3 10^3/M.s. Take `Nc1ccc(C(=O)O)c(O)c1` [AMINOSALICYLIC ACID]: the minimum inhibitory concentration (MIC) in assay [10] was at least 125 µM. Take `Nc1ccc(S(=O)(=O)Nc2nccs2)cc1` [SULFATHIAZOLE]: the minimum inhibitory concentration (MIC) in [10] was at least 125 µM. `O=C(O)/C(O)=C/C(=O)c1ccccc1` showed an IC50 in [11] of 2 µM. As for `O=C(O)[C@H]1O[C@H]1C(=O)O`, in [9], the Kinact is 0.01 10^3/M.s. As for `O=c1ccc2ccc(O)c(O)c2o1` [DAPHNETIN], the IC50 in assay [7] stood at 4.34 µg/mL. The MIC in assay [12] came to 128 µg/mL (≈ 719 µM).
